Results from US20250277029A1, “CANNABINOID TYPE 1 RECEPTOR BINDING PROTEINS AND USES THEREOF” (AMGEN INC., priority 2022, published 2025).

System: JAX WT DIO
Test: Rimonabant 3 mg/kg QD in JAX WT DIO mice (12 weeks HFD): body weight, fat mass, liver weight
Format: in vivo, mouse
Conditions: JAX WT DIO (12 weeks HFD), 3 mg/kg (6.5 μmol/kg, QD)

## Cc1c(C(=O)NN2CCCCC2)nn(-c2ccc(Cl)cc2Cl)c1-c1ccc(Cl)cc1 [Rimonabant, rimonabant]
Day 15
  Fat Mass % Change: −23%
Day 17
  Liver Weight % Change (Day): −7%
Day 17
  BW % Change: −12.9%
